≈ marks a conversion by molar mass, not a printed value.
Experiments:
[1] = target: DNA gyrase (Escherichia coli) (UniProt P0AES6+P0AES4)
Staphylococcus aureus = assay: Antibacterial activity against Staphylococcus aureus (H228)
Pseudomonas aeruginosa = assay: Antibacterial activity against Pseudomonas aeruginosa (UI-18)
Streptococcus pneumoniae = assay: Antibacterial activity against Streptococcus pneumoniae (SV-1)
Klebsiella pneumoniae = assay: Antibacterial activity against Klebsiella pneumonia (MGH-2)
Escherichia coli [2] = assay: Antibacterial activity against Escherichia coli (vogel)
Escherichia coli [3] = assay: Antibacterial activity against Escherichia coli (H560)

CCn1cc(C(=O)O)c(=O)c2cc(F)c(N3CCNCC3)cc21
gyrase cleavage conc [1]: 1 µg/mL

CCn1cc(C(=O)O)c(=O)c2cc(F)c(N3CCN(C(C)=N)CC3)cc21
MIC (Staphylococcus aureus): 6.3 µg/mL (≈ 17.5 µM)
MIC (Pseudomonas aeruginosa): 1.6 µg/mL (≈ 4.44 µM)
MIC (Streptococcus pneumoniae): 12.5 µg/mL (≈ 34.7 µM)
MIC (Klebsiella pneumoniae): 1.6 µg/mL (≈ 4.44 µM)
MIC (Escherichia coli [2]): 0.8 µg/mL (≈ 2.22 µM)
MIC (Escherichia coli [3]): 0.2 µg/mL (≈ 0.555 µM)
gyrase cleavage conc [1]: 2.5 µg/mL

CCn1cc(C(=O)O)c(=O)c2cc(F)c(C)cc21
MIC (Staphylococcus aureus): 1.6 µg/mL (≈ 6.42 µM)
MIC (Pseudomonas aeruginosa): 12.5 µg/mL (≈ 50.2 µM)
MIC (Streptococcus pneumoniae): 100 µg/mL (≈ 401 µM)
MIC (Klebsiella pneumoniae): 0.2 µg/mL (≈ 0.802 µM)
MIC (Escherichia coli [2]): 0.2 µg/mL (≈ 0.802 µM)
MIC (Escherichia coli [3]): 0.4 µg/mL (≈ 1.6 µM)
gyrase cleavage conc [1]: 25 µg/mL

CCn1cc(C(=O)O)c(=O)c2cc(F)c(N3CCC(C(F)(F)F)CC3)cc21
MIC (Staphylococcus aureus): 0.1 µg/mL (≈ 0.259 µM)
MIC (Pseudomonas aeruginosa): > 100 µg/mL
MIC (Streptococcus pneumoniae): 6.3 µg/mL (≈ 16.3 µM)
MIC (Klebsiella pneumoniae): > 100 µg/mL
MIC (Escherichia coli [2]): 6.3 µg/mL (≈ 16.3 µM)
MIC (Escherichia coli [3]): 6.3 µg/mL (≈ 16.3 µM)
gyrase cleavage conc [1]: 5 µg/mL

CCn1cc(C(=O)O)c(=O)c2cc(F)c(NC)cc21
MIC (Staphylococcus aureus): 12.5 µg/mL (≈ 47.3 µM)
MIC (Pseudomonas aeruginosa): > 100 µg/mL
MIC (Streptococcus pneumoniae): 100 µg/mL (≈ 378 µM)
MIC (Klebsiella pneumoniae): 6.3 µg/mL (≈ 23.8 µM)
MIC (Escherichia coli [2]): 3.1 µg/mL (≈ 11.7 µM)
MIC (Escherichia coli [3]): 3.1 µg/mL (≈ 11.7 µM)
gyrase cleavage conc [1]: 18 µg/mL

CCn1cc(C(=O)O)c(=O)c2cc(F)c(N3CCC(C(N)=O)CC3)cc21
MIC (Staphylococcus aureus): 3.1 µg/mL (≈ 8.58 µM)
MIC (Pseudomonas aeruginosa): 50 µg/mL (≈ 138 µM)
MIC (Streptococcus pneumoniae): 6.3 µg/mL (≈ 17.4 µM)
MIC (Klebsiella pneumoniae): 25 µg/mL (≈ 69.2 µM)
MIC (Escherichia coli [2]): 6.3 µg/mL (≈ 17.4 µM)
MIC (Escherichia coli [3]): 25 µg/mL (≈ 69.2 µM)
gyrase cleavage conc [1]: 7.5 µg/mL

CCn1cc(C(=O)O)c(=O)c2cc(F)c(N3CCN(CCN)CC3)nc21
MIC (Staphylococcus aureus): 50 µg/mL (≈ 138 µM)
MIC (Pseudomonas aeruginosa): 50 µg/mL (≈ 138 µM)
MIC (Streptococcus pneumoniae): 12.5 µg/mL (≈ 34.4 µM)
MIC (Klebsiella pneumoniae): 25 µg/mL (≈ 68.8 µM)
MIC (Escherichia coli [2]): 12.5 µg/mL (≈ 34.4 µM)
MIC (Escherichia coli [3]): 12.5 µg/mL (≈ 34.4 µM)
gyrase cleavage conc [1]: 6.3 µg/mL

CCn1cc(C(=O)O)c(=O)c2ccc(/C=N/O)nc21
MIC (Staphylococcus aureus): 50 µg/mL (≈ 191 µM)
MIC (Pseudomonas aeruginosa): 100 µg/mL (≈ 383 µM)
MIC (Streptococcus pneumoniae): 100 µg/mL (≈ 383 µM)
MIC (Klebsiella pneumoniae): 12.5 µg/mL (≈ 47.8 µM)
MIC (Escherichia coli [2]): 12.5 µg/mL (≈ 47.8 µM)
MIC (Escherichia coli [3]): > 100 µg/mL
gyrase cleavage conc [1]: 100 µg/mL

CCn1cc(C(=O)O)c(=O)c2cc(F)c(NCCN)nc21
MIC (Staphylococcus aureus): > 100 µg/mL
MIC (Pseudomonas aeruginosa): 50 µg/mL (≈ 170 µM)
MIC (Streptococcus pneumoniae): > 100 µg/mL
MIC (Klebsiella pneumoniae): 25 µg/mL (≈ 85 µM)
MIC (Escherichia coli [2]): 12.5 µg/mL (≈ 42.5 µM)
MIC (Escherichia coli [3]): 25 µg/mL (≈ 85 µM)
gyrase cleavage conc [1]: 50 µg/mL

CCn1cc(C(=O)O)c(=O)c2ccc(N3CCN(CC#N)CC3)cc21
MIC (Staphylococcus aureus): 25 µg/mL (≈ 73.4 µM)
MIC (Pseudomonas aeruginosa): 100 µg/mL (≈ 294 µM)
MIC (Streptococcus pneumoniae): > 100 µg/mL
MIC (Klebsiella pneumoniae): > 100 µg/mL
MIC (Escherichia coli [2]): 50 µg/mL (≈ 147 µM)
MIC (Escherichia coli [3]): 50 µg/mL (≈ 147 µM)
gyrase cleavage conc [1]: 18 µg/mL

CCn1cc(C(=O)O)c(=O)c2cc(F)c(N3CCC(N4CCN(C)CC4)CC3)cc21
MIC (Staphylococcus aureus): 1.6 µg/mL (≈ 3.84 µM)
MIC (Pseudomonas aeruginosa): 50 µg/mL (≈ 120 µM)
MIC (Streptococcus pneumoniae): 6.3 µg/mL (≈ 15.1 µM)
MIC (Klebsiella pneumoniae): 12.5 µg/mL (≈ 30 µM)
MIC (Escherichia coli [2]): 3.1 µg/mL (≈ 7.44 µM)
MIC (Escherichia coli [3]): 12.5 µg/mL (≈ 30 µM)
gyrase cleavage conc [1]: 50 µg/mL

CCn1cc(C(=O)O)c(=O)cc1-c1ccc(OC)cc1
MIC (Staphylococcus aureus): > 100 µg/mL
MIC (Pseudomonas aeruginosa): > 100 µg/mL
MIC (Streptococcus pneumoniae): > 100 µg/mL
MIC (Klebsiella pneumoniae): 50 µg/mL (≈ 183 µM)
MIC (Escherichia coli [2]): 50 µg/mL (≈ 183 µM)
MIC (Escherichia coli [3]): > 100 µg/mL
gyrase cleavage conc [1]: 100 µg/mL

CCn1cc(C(=O)O)c(=O)c2ccc(/C=C/N3CCN(C)CC3)nc21
MIC (Staphylococcus aureus): > 100 µg/mL
MIC (Pseudomonas aeruginosa): > 100 µg/mL
MIC (Streptococcus pneumoniae): > 100 µg/mL
MIC (Klebsiella pneumoniae): > 100 µg/mL
MIC (Escherichia coli [2]): > 100 µg/mL
MIC (Escherichia coli [3]): > 100 µg/mL
gyrase cleavage conc [1]: > 100 µg/mL

CCn1cc(C(=O)O)c(=O)c2cc([N+](=O)[O-])c(C)nc21
MIC (Staphylococcus aureus): 25 µg/mL (≈ 90.2 µM)
MIC (Pseudomonas aeruginosa): > 100 µg/mL
MIC (Streptococcus pneumoniae): > 100 µg/mL
MIC (Klebsiella pneumoniae): 50 µg/mL (≈ 180 µM)
MIC (Escherichia coli [2]): 25 µg/mL (≈ 90.2 µM)
MIC (Escherichia coli [3]): 50 µg/mL (≈ 180 µM)
gyrase cleavage conc [1]: 50 µg/mL

CCn1cc(C(=O)O)c(=O)cc1C
MIC (Staphylococcus aureus): > 100 µg/mL
MIC (Pseudomonas aeruginosa): > 100 µg/mL
MIC (Streptococcus pneumoniae): > 100 µg/mL
MIC (Klebsiella pneumoniae): > 100 µg/mL
MIC (Escherichia coli [2]): > 100 µg/mL
MIC (Escherichia coli [3]): > 100 µg/mL
gyrase cleavage conc [1]: 100 µg/mL

CCn1cc(C(=O)O)c(=O)c2ccc(/C=N/N3CCN(C)CC3)nc21
MIC (Staphylococcus aureus): 12.5 µg/mL (≈ 36.4 µM)
MIC (Pseudomonas aeruginosa): > 100 µg/mL
MIC (Streptococcus pneumoniae): 100 µg/mL (≈ 291 µM)
MIC (Klebsiella pneumoniae): 12.5 µg/mL (≈ 36.4 µM)
MIC (Escherichia coli [2]): 12.5 µg/mL (≈ 36.4 µM)
MIC (Escherichia coli [3]): 12.5 µg/mL (≈ 36.4 µM)
gyrase cleavage conc [1]: 100 µg/mL

CCn1cc(C(=O)O)c(=O)c2ccc(C)nc21
gyrase cleavage conc [1]: 50 µg/mL

CC1COc2c(N3CCN(C)CC3)c(F)cc3c(=O)c(C(=O)O)cn1c23 (centres undefined)
gyrase cleavage conc [1]: 5 µg/mL

CCn1cc(C(=O)O)c(=O)c2cc(F)c(F)c(F)c21
MIC (Staphylococcus aureus): 50 µg/mL (≈ 184 µM)
MIC (Pseudomonas aeruginosa): > 100 µg/mL
MIC (Streptococcus pneumoniae): > 100 µg/mL
MIC (Klebsiella pneumoniae): 6.3 µg/mL (≈ 23.2 µM)
MIC (Escherichia coli [2]): 1.6 µg/mL (≈ 5.9 µM)
MIC (Escherichia coli [3]): 6.3 µg/mL (≈ 23.2 µM)
gyrase cleavage conc [1]: 38 µg/mL

CCn1cc(C(=O)O)c(=O)c2c(N)nc(N3CCN(C)CC3)nc21
MIC (Staphylococcus aureus): 100 µg/mL (≈ 301 µM)
MIC (Pseudomonas aeruginosa): 100 µg/mL (≈ 301 µM)
MIC (Streptococcus pneumoniae): 100 µg/mL (≈ 301 µM)
MIC (Klebsiella pneumoniae): 6.3 µg/mL (≈ 19 µM)
MIC (Escherichia coli [2]): 1.6 µg/mL (≈ 4.81 µM)
MIC (Escherichia coli [3]): 3.1 µg/mL (≈ 9.33 µM)
gyrase cleavage conc [1]: 100 µg/mL

CCn1cc(C(=O)O)c(=O)c2cc(F)c(N3CCC(N4CCCC4)CC3)cc21
MIC (Staphylococcus aureus): 3.1 µg/mL (≈ 8 µM)
MIC (Pseudomonas aeruginosa): 3.1 µg/mL (≈ 8 µM)
MIC (Streptococcus pneumoniae): 12.5 µg/mL (≈ 32.3 µM)
MIC (Klebsiella pneumoniae): 1.6 µg/mL (≈ 4.13 µM)
MIC (Escherichia coli [2]): 0.4 µg/mL (≈ 1.03 µM)
MIC (Escherichia coli [3]): 0.1 µg/mL (≈ 0.258 µM)
gyrase cleavage conc [1]: 7.5 µg/mL
